melting point [°C]	Structure (SMILES)
103 to 150	COc1cc(C)c(C(=O)CCCCCCCCCCCCCCCCCCCCC(=O)O)c(O)c1OC
104 to 106	COC(=O)CCc1ccc(CCc2csc(NC(C)=O)n2)s1
140 to 142	CCC1(CC)O[C@@H](Oc2ccc3c(O)c(NC(=O)C(C)C)c(=O)oc3c2C)[C@H](O)[C@H](OC(=O)C2(C)C=CCN2)[C@H]1OC (some centres not stated)
220 to 222	O=Cc1ccc2c(c1)NC(=O)CO2
112	COC(=O)C(CS)NC(=O)C(=O)NCCS (configuration not stated)
132 to 133	CCc1nc2c(n1C(CC)CC)C(=O)N(C)CN2c1ccc(Cl)cc1Cl
286 to 289	O=C(O)CCc1c(C=C2C(=O)Nc3ccc(Br)cc32)[nH]c2c1CCCC2
192 to 193	COc1ccc(Cn2cc([N+](=O)[O-])c(C(N)=O)n2)cc1
130 to 131	CC(C)(C)OC(=O)Nc1cccc(C(=O)NCCC(=O)OCc2ccccc2)c1
166	Oc1nc(Cl)n(CCOc2ccccc2)n1
168 to 170	O=C1COc2ccc(C3=Nc4ccccc4SC3c3ccccn3)cc2N1 (configuration not stated)
145 to 146	CC[C@H](C)C(OCc1ccccc1)[C@H]1[C@H]([N+](=O)[O-])[C@H](c2ccsc2)N[C@@H]1C(=O)NCCC(=O)O (some centres not stated)
204	CN1CCN(c2nc(-c3ccccc3Cl)c3cc([N+](=O)[O-])ccc3n2)CC1
261 to 262	O=C(O)c1cc(=O)c2cc(F)ccc2o1
108 to 110	CN1CCN=C1CC(c1ccccc1)c1ccccc1
104 to 107	COC(=O)C(OC(=O)c1ccc(C(=O)O)cc1)C(=O)OC
93 to 94	COc1cc(Cl)cnc1N
68	CC(C)(C)OC(=O)N(Cc1ccccc1)C1(CO)CC1
158 to 160	CCn1ncc2c(Cl)c3cc(S(C)(=O)=O)ccc3nc21
191 to 193	CC(=O)C(Cc1nsc2ccc(-n3c(=O)cc(C(F)(F)F)n(C)c3=O)cc12)C(=O)O (configuration not stated)
80 to 82	CCCCCCNC(C)=C1C(=O)OC(=O)C(C(C)=O)=C1O
222 to 223	C=CCSc1nc(N)n(-c2nnc(-c3ccccc3O)s2)n1
263 to 265	CCOC(=O)c1cnn2c1[nH]c(=O)c1cnc3c(cnn3CC)c12
215	CC(C)(C)OC(=O)N1CCC[C@H]1c1nc2c(C(F)(F)F)cccc2c(O)c1C(=O)Nc1nccs1

melting point [°C]	Structure (SMILES)
122 to 123	CC(C)(C)OC(=O)NC(C)(C)c1ccc(C(=O)CC#N)cc1
67 to 68	COc1ccc(CCCC(O)CCC(=O)O)cc1 (configuration not stated)
61 to 62	N#Cc1ccc(CCCCCC(=O)O)cc1
264 to 266	Cc1cn(-c2cc(NC(=O)c3cccc(Nc4nccc(-c5cccnc5)n4)c3)cc(C(F)(F)F)c2)cn1
148	CS/C=C(/C)n1c(=O)n(Cc2cc(C(F)(F)F)cc(C(F)(F)F)c2)c2ccccc21
95	CCCCC(C(=O)OC)c1cccc(C(=O)c2cc3cc(C(=O)OC)sc3s2)c1 (configuration not stated)
105 to 107	Cc1cc2c(s1)C(C(=O)O)CC2 (configuration not stated)
122 to 123	COc1ccc(-n2cc(CCCO)c(C(C)C)n2)nn1
152 to 154	CCCN1C(=O)N2C(=NCC2c2ccccc2)c2c1ncn2C (configuration not stated)
106 to 110	CC(C)c1nn2ccccc2c1C(=O)C1CCCC1
209 to 210	CNC(=S)n1nc(C=Cc2ccc(Cl)cc2)nc1N
185 to 186	O=C1C=CC(=O)N1c1ccc2c3c(cccc13)-c1ccccc1-2
95 to 97	CCCCCCNCCC(=O)O
197	CCOc1cc(N)c(Cl)cc1C(=O)NCC1CN(CC2CCN(C#N)CC2)CCO1 (configuration not stated)
219 to 221	Cc1nc(-c2ccccc2)nc(-c2cccc([N+](=O)[O-])c2)c1CC#N
189 to 191	CCC(CC)OC(=O)c1ccc(C(=O)NS(=O)(=O)c2cccc(C(=O)NCCc3ccccc3)c2)cn1
65 to 66	CC(C)(C)OC(=O)N[C@@H](COCc1ccccc1)C(=O)N[C@H](CCC(=O)OCc1ccccc1)C(N)=O
104 to 105	CC(C)(C)c1cccc(C[C@@H](NC(=O)c2cccc3c2C=CCCC3)[C@@H](O)c2cccc(Cl)c2)c1 (racemic)
125 to 127	CCCOC(=O)Nc1nc2ccccc2c2c1nc(COCC)n2CC(C)(C)NS(C)(=O)=O
257 to 260	C[C@@H]1CN(c2c(F)cc3c(=O)c(C(=O)O)cn(C4CC4)c3c2F)C[C@H]1N (relative stereo)
112	Cn1cncc1C1SCCCS1
198	CC(C)(C)OC(=O)NC(C(=O)Oc1ccc(/C=c2\[nH]c(=O)/c(=C/c3ccccc3)[nH]c2=O)nc1)c1ccccc1 (configuration not stated)
59 to 60	CN1Cc2ccccc2N(C)S1(=O)=O
113 to 114	N#Cc1ccc2c(CCC3CCN(Cc4ccccc4)CC3)noc2c1

melting point [°C]	Structure (SMILES)
142 to 143	CCCCn1sc2nccn2c1=O
205	S=C(Nc1ccccc1)N1CCc2[nH]cnc2C1
243 to 245	CC(C)(C)OC(=O)C(CCC(N)=O)N1Cc2c(OCc3ccc(CN4C5CCC4COC5)cc3)cccc2C1=O (configuration not stated)
215 to 217	COc1cc2c(cc1OC)[C@@H]1CN(C)CC[C@@H]1N=C2c1cccc(C(F)(F)F)c1 (relative stereo)
129 to 131	O=C(c1cccc(OC(F)(F)F)c1)N1CCc2cc(S(=O)(=O)N3CC(c4ccccc4)NC3=O)ccc21 (configuration not stated)
113 to 114	CCOC(=O)c1cnoc1-c1ccc(OC)c(OC)c1
214 to 216	CCCOc1cc(C)ccc1-c1nc(N)c(N=O)c(=O)[nH]1
103	CC(=O)NC1(C)CCN(CCCOc2ccc(F)cc2)CC1
160 to 163	O=C(O)c1cc2c(cc1[N+](=O)[O-])OCO2
121 to 122	COCCn1cc(C(=O)NCc2ccc(Cl)cc2)c(=O)c2cc(CN(C)C[C@@H](O)c3ccco3)sc21
146 to 148	CS(=O)(=O)c1ccc(C2=C(c3ccccc3)C(=NO)C2)cc1
176 to 179	CC1(C)CC(=O)Nc2ccc(Br)cc21
117 to 118	CCOC(=O)c1cnn2c1nc(OCCC(C)C)c1cnc3c(cnn3CC)c12
115 to 117	CC(=O)NC(CO)C(=O)c1ccccc1 (configuration not stated)
78 to 80	N#Cc1cn(CC(O)CCl)nc1[N+](=O)[O-] (configuration not stated)
260	Cc1ccc(N2C(=O)C(O)=C(C(=O)c3ccc(CC(C)C)cc3)C2c2ccc(OC(F)(F)F)cc2)nn1 (configuration not stated)
122 to 124	CC(C)NC(=O)c1nc(-c2ccc(F)cc2)c(-c2ccc(=O)n(C(C)C)n2)s1
197 to 198	O=C(c1ccc(-c2ccccc2)cc1)N1Cc2ccc(C(=O)C(Cl)(Cl)Cl)n2Cc2ccccc21
173 to 174	CCOCc1nc2c(N)nc3ccccc3c2n1CCCCS(=O)(=O)N(C)C
115 to 117	CCOC(=O)C=CC(=O)c1ccc(Oc2ccc(Cl)c(Cl)c2)cc1
95 to 98	CCC(CC)C(NS(=O)(=O)c1ccc(Cl)s1)C(C)O (configuration not stated)
234 to 236	c1ccc(-c2ccc3[nH]nc(Nc4nccs4)c3c2)nc1
182 to 185	COC(=O)c1cc(CO)ccc1S(=O)(=O)NC(=O)Nc1nc(OC)cc(OC)n1
147 to 150	CCOC(=O)c1ccc(N2CCN(C(=O)c3ccc(Cl)cc3)CC2)cc1

melting point [°C]	Structure (SMILES)
105	CC(C)(C)OC(=O)C(C(=O)O)c1cccc(N)c1 (configuration not stated)
100 to 102	C[C@H]1C=CC(S(=O)(=O)c2ccccc2)=C[C@H](C)[C@H]1O
209 to 213	Cc1cccc(C)c1/N=C1\SCC(=O)N1/N=C/c1ccc(-c2ncn(-c3ccc(OC(F)(F)F)cc3)n2)cc1
231	Cn1nc(-c2ccc(N)c([N+](=O)[O-])c2)c2ccccc21
172	Nc1ccccc1C(=O)NN1CCOCC1
61 to 63	CCCSc1cscc1S(=O)(=O)NC(C)(C)C
131 to 133	O=C1Cc2ccc(F)cc2Sc2cc(F)c(Cl)cc21
186 to 188	COC(=O)OC1=C(c2cc(C)ccc2C)C(=O)NC12CCN(OC)CC2
248 to 249	O=C(c1cc2cccc(NS(=O)(=O)c3cccs3)c2[nH]1)N1CCCC1
160 to 162	COC1(OC)C2(Cl)C(Cl)=C(Cl)C1(Cl)C1OC(=O)OC12 (configuration not stated)
137 to 138	COc1cc(CCNC(=O)c2ccccc2)cc2c1OC(C)(C)C2
112 to 114	N#Cc1c(N)cccc1N1CCCC1
168 to 172	N#Cc1ccc(-c2cn(-c3ccc(C#N)cc3)c(SCc3ccccc3)n2)cc1
146 to 149	CC(=O)N1CCC(O)(C(=O)c2ccc(F)cc2)CC1
154 to 156	Cc1nc2cnccc2n1-c1ccc(CO)cc1
233 to 234	Cc1nc(-n2cnn(Cc3c(C)noc3C)c2=O)sc1C(=O)NCc1cccnc1
129	Nc1cccc(S(=O)(=O)NCc2cccnc2)c1
50	CON(C)C(=O)NC(CS)Cc1ccccc1 (single isomer, unassigned; (+))
228 to 230	COC(=O)c1ccc2c(c1)c(Cc1ccc(C(=O)O)cc1OC)cn2C
203 to 206	CC12C=CC(=O)C=C1CCC1C2C(=O)CC2(C)C(C(=O)CO)CCC12 (configuration not stated)
156 to 159	CNc1ccc(C(=O)OC)c(F)n1
83 to 85	O=C(OCC1CCCO1)C1Oc2ccccc2Cc2ccccc2O1 (configuration not stated)
210 to 212	O=C(O)c1cn(C2CC2)c2c(C(F)(F)F)c(N3CCC(c4ccccn4)C3)c(F)cc2c1=O (configuration not stated)
53 to 55	CC(C)c1nc2ccc(C=O)cc2nc1C(C)C

Structure (SMILES)	melting point [°C]
CC(C)(CO)c1cnc(-c2nn(-c3ccc(F)cc3F)c3c2C2CCC3C2)o1 (configuration not stated)	66 to 68
Oc1ccc(-c2ccc(C#CC3(O)CN4CCC3CC4)cc2)cc1 (configuration not stated)	230 to 233
COC(=O)NNC(=O)Cl	55 to 58
CN1C(=O)C(NC(=O)Nc2ccccc2Cl)N=C(c2ccccc2)c2ccccc21 (configuration not stated)	212 to 214
NC(=O)CN1CCN(C(=O)Cc2ccc(OC(=O)c3ccc([N+](=O)[O-])cc3)cc2)CC1	192 to 196
Cc1cc(NC2=NCCN2)n(CCC(C)C)n1	104 to 106

— a melting point compilation (Tetko et al.; mined from patent text by program, amines drawn as free bases though some values may be those of a salt)
